{
  "source": "patent US11981686B2",
  "about": "“Urea compound having substituent” (DAIICHI SANKYO COMPANY, LIMITED, priority 2019, dated 2024)",
  "biological_target": "SIRT6 enzyme (Homo sapiens, UniProt Q8N6T7)",
  "sequence (Q8N6T7 whole entry, species assumed)": "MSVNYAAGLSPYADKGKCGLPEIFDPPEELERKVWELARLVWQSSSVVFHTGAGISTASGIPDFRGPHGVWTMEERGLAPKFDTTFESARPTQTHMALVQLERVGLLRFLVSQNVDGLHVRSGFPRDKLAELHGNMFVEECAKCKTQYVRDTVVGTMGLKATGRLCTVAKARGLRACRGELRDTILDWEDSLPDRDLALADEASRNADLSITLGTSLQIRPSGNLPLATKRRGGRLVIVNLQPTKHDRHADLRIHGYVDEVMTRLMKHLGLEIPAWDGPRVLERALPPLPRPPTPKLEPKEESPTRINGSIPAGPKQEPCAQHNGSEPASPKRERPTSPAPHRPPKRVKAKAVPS",
  "experiment": "Measurement of deacetylation activity (SIRT6, AlphaLISA, H3K9(Ac) peptide)",
  "format": "biochemical",
  "details": "SIRT6 25 ng/mL, H3K9(Ac) biotin peptide 2 nM, NAD 10 μM, room temperature 30 minutes, duplicate",
  "protocol": "The reaction was performed in duplicate using a white 384-well plate (3824, Corning or 6008350, PerkinElmer) at a final reaction liquid volume of 20.1 μL. As a control for calculating the enzyme activity, the enzyme-added (DMSO (+)) and enzyme-free (DMSO (−)) wells were set at n=8. Test substances (examples of final concentrations: 0.046, 0.14, 0.41, 1.2, 3.7, 11, 33, and 100 μM) at a concentration of 100 times or 0.1 μL of DMSO was dispensed into the plate and 5 μL of SIRT6 enzyme (prepared by Daiichi Sankyo RD Novare Co., Ltd., final concentration: 25 ng/mL) diluted with an assay buffer (10 mM Tris-HCl pH of 8.0, 0.1% BSA, 0.01% Tween 20, 1 mM DTT, 12.5% Glycerol) was added thereto. The enzymatic reaction was started by adding 5 μL of a mixed solution [Lys(Ac)9]-Histone H3 (1-21)-NH2, H3K9 (Ac), biotin-labeled, amide (AnaSpec, AS-64190, final concentration: 2 nM) and β-nicotinamide adenine dinucleotide (Sigma-Aldrich, N8285-15VL, final concentration: 10 μM), and the reaction was performed at room temperature for 30 minutes. 10 μL of a mixed solution of nicotinamide (Sigma-Aldrich, 72340-100G, final concentration: 100 mM) prepared with AlphaLISA Epigenetics Buffer (PerkinElmer, AL008C), AlphaLISA Anti-unmodified Histone H3 Lysine 9/Lysine 27 (H3K9/K27) Acceptor Beads (PerkinElmer, AL138, final concentration: 10 μg/mL), and AlphaScreen Streptavidin Donor beads (PerkinElmer, 6760002, final concentration: 5 μg/mL) was added thereto, the reaction was performed at room temperature for 60 minutes and then stopped, and acetylation was detected. The emission intensity was measured by EnVision (PerkinElmer).\nThe relative enzyme activity (%) of the test substance was calculated by the following equation. Relative enzyme activity (%)=[(emission intensity of test substance-added well−emission intensity of DMSO (−) well)/(emission intensity of DMSO (+) well−emission intensity of DMSO (−) well)]×100\nThe EC150 (the concentration of the compound showing a relative enzyme activity of 150%) of the test substance was calculated based on Sigmoidal dose-response (variable slope) of GraphPad Prism (GraphPad Software) using the value of the relative enzyme activity (%) at each concentration, and the results are listed in Tables 1-1 to 1-5.",
  "data": [
    {"smiles": "CNC(=O)Nc1nc2c(s1)[C@@H]1CC[C@H](C2)N1c1nc(-c2ccc(F)cc2)no1", "note": "(relative stereo) [Example 10, N-{(5R*,8S*)-9-[3-(4-fluorophenyl)-1,2,4-oxadiazol-5-yl]-5,6,7,8-tetrahydro-4H-5,8-epiminocyclohepta[d][1,3]thiazol-2-yl}-N′-methylurea]", "values": [
      {"measurement": "EC150 (the concentration of the compound showing a relative enzyme activity of 150%)", "result": 1.0, "unit": "μm"}
    ]},
    {"smiles": "CNC(=O)Nc1nc2c(s1)[C@@H]1CCC[C@H](C2)N1c1nc(-c2ccc(F)cc2)no1", "note": "(relative stereo) [Example 12, N-{(5R*,9S*)-10-[3-(4-fluorophenyl)-1,2,4-oxadiazol-5-yl]-4,5,6,7,8,9-hexahydro-5,9-epiminocycloocta[d][1,3]thiazol-2-yl}-N′-methylurea]", "values": [
      {"measurement": "EC150 (the concentration of the compound showing a relative enzyme activity of 150%)", "result": 1.4, "unit": "μm"}
    ]},
    {"smiles": "CNC(=O)Nc1nc2c(s1)[C@H]1CN(C(C)=O)C[C@@H](C2)N1c1nc(-c2ccc(F)cc2)no1", "note": "(relative stereo) [Example 23, (−)-N-{(4R*,8R*)-6-acetyl-10-[3-(4-fluorophenyl)-1,2,4-oxadiazol-5-yl]-4,5,6,7,8,9-hexahydro-4,8-epimino[1,3]thiazolo[5,4-d]azocin-2-yl}-N′-methylurea]", "values": [
      {"measurement": "EC150 (the concentration of the compound showing a relative enzyme activity of 150%)", "result": 0.19, "unit": "μm"}
    ]},
    {"smiles": "CNC(=O)Nc1nc2c(s1)[C@H]1CN(C(=O)OC)C[C@@H](C2)N1c1nc(-c2ccc(F)cc2)no1", "note": "(relative stereo) [Example 24, (−)-Methyl (4R*,8R*)-10-[3-(4-fluorophenyl)-1,2,4-oxadiazol-5-yl]-2-[(methylcarbamoyl)amino]-4,7,8,9-tetrahydro-4,8-epimino[1,3]thiazolo[5,4-d]azocine-6(5H)-carboxylate]", "values": [
      {"measurement": "EC150 (the concentration of the compound showing a relative enzyme activity of 150%)", "result": 0.19, "unit": "μm"}
    ]},
    {"smiles": "COC(=O)N1C[C@H]2Cc3nc(NC(=O)NCC(C)(C)O)sc3[C@@H](C1)N2c1nc(C2(C(F)(F)F)CC2)no1", "note": "(relative stereo) [Example 33, Methyl (4R*,8R*)-2-{[(2-hydroxy-2-methylpropyl)carbamoyl]amino}-10-{3-[1-(trifluoromethyl)cyclopropyl]-1,2,4-oxadiazol-5-yl}-4,7,8,9-tetrahydro-4,8-epimino[1,3]thiazolo[5,4-d]azocine-6(5H)-carboxylate]", "values": [
      {"measurement": "EC150 (the concentration of the compound showing a relative enzyme activity of 150%)", "result": 1.6, "unit": "μm"}
    ]},
    {"smiles": "CNC(=O)Nc1nc2c(s1)[C@@H]1COC[C@H](C2)N1c1nc(-c2ccc(F)cc2)no1", "note": "(single isomer, unassigned) [Example 13]", "values": [
      {"measurement": "EC150 (the concentration of the compound showing a relative enzyme activity of 150%)", "result": 1.3, "unit": "μm"}
    ]},
    {"smiles": "CNC(=O)Nc1nc2c(s1)CN(c1nc(C3CCC(F)(F)CC3)no1)CC2", "note": "[Example 1, N-{5-[3-(4,4-difluorocyclohexyl)-1,2,4-oxadiazol-5-yl]-4,5,6,7-tetrahydro[1,3]thiazolo[5,4-c]pyridin-2-yl}-N′-methylurea]", "values": [
      {"measurement": "EC150 (the concentration of the compound showing a relative enzyme activity of 150%)", "result": 1.7, "unit": "μm"}
    ]},
    {"smiles": "CNC(=O)Nc1nc2c(s1)CN(c1nnc(C(F)(F)F)o1)CC2", "note": "[Example 2, N-methyl-N′-{5-[5-(trifluoromethyl)-1,3,4-oxadiazol-2-yl]-4,5,6,7-tetrahydro[1,3]thiazolo[5,4-c]pyridin-2-yl}urea]", "values": [
      {"measurement": "EC150 (the concentration of the compound showing a relative enzyme activity of 150%)", "result": 1.6, "unit": "μm"}
    ]},
    {"smiles": "CCO[C@H](C)c1nnc(N2CCc3nc(NC(=O)NC)sc3C2)o1", "note": "[Example 3, N-(5-{5-[(1R)-1-ethoxyethyl]-1,3,4-oxadiazol-2-yl}-4,5,6,7-tetrahydro[1,3]thiazolo[5,4-c]pyridin-2-yl)-N′-methylurea]", "values": [
      {"measurement": "EC150 (the concentration of the compound showing a relative enzyme activity of 150%)", "result": 3.4, "unit": "μm"}
    ]},
    {"smiles": "CNC(=O)Nc1nc2c(s1)CN(c1nc(C(C)OCC(F)(F)F)no1)CC2", "note": "(stereo not shown) [Example 4, N-methyl-N′-(5-{3-[1-(2,2,2-trifluoroethoxy)ethyl]-1,2,4-oxadiazol-5-yl}-4,5,6,7-tetrahydro[1,3]thiazolo[5,4-c]pyridin-2-yl)urea]", "values": [
      {"measurement": "EC150 (the concentration of the compound showing a relative enzyme activity of 150%)", "result": 1.2, "unit": "μm"}
    ]},
    {"smiles": "C[C@H](CO)NC(=O)Nc1nc2c(s1)CN(c1nc(C3CCC(F)(F)CC3)no1)CC2", "note": "[Example 5, N-{5-[3-(4,4-difluorocyclohexyl)-1,2,4-oxadiazol-5-yl]-4,5,6,7-tetrahydro[1,3]thiazolo[5,4-c]pyridin-2-yl}-N′-[(2R)-1-hydroxypropan-2-yl]urea]", "values": [
      {"measurement": "EC150 (the concentration of the compound showing a relative enzyme activity of 150%)", "result": 1.5, "unit": "μm"}
    ]},
    {"smiles": "CNC(=O)Nc1nc2c(s1)C1COCC(C2)N1c1nc([C@H]2CC[C@@H](C(F)(F)F)CC2)no1", "note": "(stereo partly shown) [Example 6, N-methyl-N′-(10-{3-[(1s,4s)-4-(trifluoromethyl)cyclohexyl]-1,2,4-oxadiazol-5-yl}-4,7,8,9-tetrahydro-5H-4,8-epiminooxocino[5,4-d][1,3]thiazol-2-yl)urea]", "values": [
      {"measurement": "EC150 (the concentration of the compound showing a relative enzyme activity of 150%)", "result": 4.5, "unit": "μm"}
    ]},
    {"smiles": "CNC(=O)Nc1nc2c(s1)[C@@H]1COC[C@H](C2)N1c1nc(C2CCC(F)(F)CC2)no1", "note": "[Example 7, N-{(4S,8S)-10-[3-(4,4-difluorocyclohexyl)-1,2,4-oxadiazol-5-yl]-4,7,8,9-tetrahydro-5H-4,8-epiminooxocino[5,4-d][1,3]thiazol-2-yl}-N′-methylurea]", "values": [
      {"measurement": "EC150 (the concentration of the compound showing a relative enzyme activity of 150%)", "result": 5.7, "unit": "μm"}
    ]},
    {"smiles": "CNC(=O)Nc1nc2c(s1)CN(c1nc(-c3cccc(OC(F)(F)F)c3)no1)CC2", "note": "[Example 8, N-methyl-N′-(5-{3-[3-(trifluoromethoxy)phenyl]-1,2,4-oxadiazol-5-yl}-4,5,6,7-tetrahydro[1,3]thiazolo[5,4-c]pyridin-2-yl)urea]", "values": [
      {"measurement": "EC150 (the concentration of the compound showing a relative enzyme activity of 150%)", "result": 3.6, "unit": "μm"}
    ]},
    {"smiles": "CNC(=O)Nc1nc2c(s1)CN(c1nnc(-c3ccc(F)c(C)c3)o1)CC2", "note": "[Example 9, N-{5-[5-(4-fluoro-3-methylphenyl)-1,3,4-oxadiazol-2-yl]-4,5,6,7-tetrahydro[1,3]thiazolo[5,4-c]pyridin-2-yl}-N′-methylurea]", "values": [
      {"measurement": "EC150 (the concentration of the compound showing a relative enzyme activity of 150%)", "result": 1.2, "unit": "μm"}
    ]},
    {"smiles": "CNC(=O)Nc1nc2c(s1)C1CCC(C2)N1c1cc(-c2ccc(F)cc2)on1", "note": "(stereo not shown) [Example 11, N-{9-[5-(4-fluorophenyl)-1,2-oxazol-3-yl]-5,6,7,8-tetrahydro-4H-5,8-epiminocyclohepta[d][1,3]thiazol-2-yl}-N′-methylurea]", "values": [
      {"measurement": "EC150 (the concentration of the compound showing a relative enzyme activity of 150%)", "result": 4.3, "unit": "μm"}
    ]},
    {"smiles": "CNC(=O)Nc1nc2c(s1)C1COCC(C2)N1c1ncc(-c2cccc(C(F)F)c2)o1", "note": "(stereo not shown) [Example 14, N-(10-{5-[3-(difluoromethyl)phenyl]-1,3-oxazol-2-yl}-4,7,8,9-tetrahydro-5H-4,8-epiminooxocino[5,4-d][1,3]thiazol-2-yl)-N′-methylurea]", "values": [
      {"measurement": "EC150 (the concentration of the compound showing a relative enzyme activity of 150%)", "result": 0.94, "unit": "μm"}
    ]},
    {"smiles": "CNC(=O)Nc1nc2c(s1)[C@@H]1COC[C@H](C2)N1c1ncc(-c2cccc(OC)n2)o1", "note": "[Example 15, N-{(4S,8S)-10-[5-(6-methoxypyridin-2-yl)-1,3-oxazol-2-yl]-4,7,8,9-tetrahydro-5H-4,8-epiminooxocino[5,4-d][1,3]thiazol-2-yl}-N′-methylurea]", "values": [
      {"measurement": "EC150 (the concentration of the compound showing a relative enzyme activity of 150%)", "result": 1.1, "unit": "μm"}
    ]},
    {"smiles": "CNC(=O)Nc1nc2c(s1)C1COCC(C2)N1c1cc(-c2ccc(F)cc2)on1", "note": "(stereo not shown) [Example 16, N-{10-[5-(4-fluorophenyl)-1,2-oxazol-3-yl]-4,7,8,9-tetrahydro-5H-4,8-epiminooxocino[5,4-d][1,3]thiazol-2-yl}-N′-methylurea]", "values": [
      {"measurement": "EC150 (the concentration of the compound showing a relative enzyme activity of 150%)", "result": 4.2, "unit": "μm"}
    ]},
    {"smiles": "CNC(=O)Nc1nc2c(s1)[C@@H]1COC[C@H](C2)N1c1nc(-c2ccc(F)cc2)co1", "note": "[Example 17, N-{(4S,8S)-10-[4-(4-fluorophenyl)-1,3-oxazol-2-yl]-4,7,8,9-tetrahydro-5H-4,8-epiminooxocino[5,4-d][1,3]thiazol-2-yl}-N′-methylurea]", "values": [
      {"measurement": "EC150 (the concentration of the compound showing a relative enzyme activity of 150%)", "result": 1.8, "unit": "μm"}
    ]},
    {"smiles": "C[C@H](CO)NC(=O)Nc1nc2c(s1)C1COCC(C2)N1c1nc(-c2ccc(F)cc2)no1", "note": "(stereo partly drawn) [Example 18, N-{10-[3-(4-fluorophenyl)-1,2,4-oxadiazol-5-yl]-4,7,8,9-tetrahydro-5H-4,8-epiminooxocino[5,4-d][1,3]thiazol-2-yl}-N′-[(2R)-1-hydroxypropan-2-yl]urea]", "values": [
      {"measurement": "EC150 (the concentration of the compound showing a relative enzyme activity of 150%)", "result": 0.95, "unit": "μm"}
    ]},
    {"smiles": "CNC(=O)Nc1nc2c(s1)C1CN(C(C)=O)CC(C2)N1c1nc(-c2ccc(F)cc2)no1", "note": "(stereo not shown) [Example 19, N-{6-acetyl-10-[3-(4-fluorophenyl)-1,2,4-oxadiazol-5-yl]-4,5,6,7,8,9-hexahydro-4,8-epimino[1,3]thiazolo[5,4-d]azocin-2-yl}-N′-methylurea]", "values": [
      {"measurement": "EC150 (the concentration of the compound showing a relative enzyme activity of 150%)", "result": 0.60, "unit": "μm"}
    ]}
  ]
}
